Data: patent publication US7563796B2, “Diphenylimidazopyrimidines as inhibitors of β-secretase” (Wyeth, priority 2005, dated 2009)
Counter-ions that a name gives are not always drawn.

Legend:
human BACE1 = human BACE1 (Homo sapiens, UniProt P56817); assay: Fluorescent kinetic assay, BACE1 inhibition (substrate WABC-6 cleavage); format: biochemical; details: for IC50: 10 nM enzyme, 25 μM substrate WABC-6, pH 4.5, room temperature; for inhibition at 25 µM: read-out: BACE1 % inhibition at 25 μM, at 25 μM inhibitor
human BACE1, sequence (P56817 46-501): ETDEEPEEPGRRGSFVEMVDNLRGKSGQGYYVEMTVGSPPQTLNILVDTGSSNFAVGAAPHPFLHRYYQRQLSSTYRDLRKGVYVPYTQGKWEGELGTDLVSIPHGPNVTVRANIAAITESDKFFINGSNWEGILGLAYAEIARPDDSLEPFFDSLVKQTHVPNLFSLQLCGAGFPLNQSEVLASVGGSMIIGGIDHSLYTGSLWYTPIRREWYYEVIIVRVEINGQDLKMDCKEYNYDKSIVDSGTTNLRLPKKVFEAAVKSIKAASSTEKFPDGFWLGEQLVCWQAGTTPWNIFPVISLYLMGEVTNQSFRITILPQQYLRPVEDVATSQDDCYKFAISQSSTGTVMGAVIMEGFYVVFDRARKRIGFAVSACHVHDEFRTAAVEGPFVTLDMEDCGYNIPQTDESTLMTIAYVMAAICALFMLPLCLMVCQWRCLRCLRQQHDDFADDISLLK
Protocol: Evaluation of BACE-1 Binding Affinity of Test Compounds
1. Fluorescent Kinetic Assays
Dilution and mixing steps: total reaction volume: 100 μL
100 μM substrate dilution in 1X PBS was prepared, and
Fluorescence Readings: Readings at λex 320 nm and λem 420 nm are taken every 40 sec for 30 min at room temperature and the linear slope for substrate cleavage rate (vi) determined.

| SMILES | melting point | IC50 (human BACE1) | also measured |
| --- | --- | --- | --- |
| CCC(=O)Nc1cccc(C2(c3ccc(OC(F)(F)F)cc3)N=C(N)N3CCCN=C32)c1 (stereo not shown) (as salt: hydrochloride) [Example 16, N-{3-[6-Amino-8-(4-trifluoromethoxy-phenyl)-2,3,4,8-tetrahydroimidazo[1,5-a]pyrimidin-8-yl]-phenyl}-propionamide hydrochloride] | 148 to 150 °C |  |  |
| CC(C)(C)c1ccc(C2(c3ccccc3)N=C(N)N3CCCN=C32)cc1 (stereo not shown) [Example 1, 8-(4-tert-Butylphenyl)-8-phenyl-2,3,4,8-tetrahydroimidazol[1,5-a]pyrimidin-6-amine] | 139 °C | 30 µM |  |
| NC1=NC(c2ccccc2)(c2cccc(Cc3ccccc3)c2)C2=NCCCN12 (stereo not shown) [Example 2, 8-(3-Benzylphenyl)-8-phenyl-2,3,4,8-tetrahydroimidazol[1,5-a]pyrimidin-6-amine] | 80 °C | 5.3 µM |  |
| NC1=NC(c2ccccc2)(c2cccc(Oc3ccc(F)cc3)c2)C2=NCCCN12 (stereo not shown) [Example 3, 8-[3-(4-Fluorophenoxy)phenyl]-8-phenyl-2,3,4,8-tetrahydroimidazo[1,5-a]pyrimidin-6-amine] | 165 °C | 4.7 µM |  |
| COc1ccc(Cc2cccc(C3(c4ccccc4)N=C(N)N4CCCN=C43)c2)cc1 (stereo not shown) [Example 4, 8-[3-(4-Methoxybenzyl)phenyl]-8-phenyl-2,3,4,8-tetrahydroimidazo[1,5-a]pyrimidin-6-amine] | 132 °C | 7.1 µM |  |
| NC1=NC(c2ccccc2)(c2cccc(Cc3ccc(F)cc3)c2)C2=NCCCN12 (stereo not shown) [Example 5, 8-[3-(4-Fluorobenzyl)phenyl]-8-phenyl-2,3,4,8-tetrahydroimidazo[1,5-a]pyrimidin-6-amine] | 152 °C | 8.2 µM |  |
| NC1=NC(c2ccccc2)(c2cccc(C(F)(F)F)c2)C2=NCCCN12 (stereo not shown) [Example 6, 8-Phenyl-8-[3-(trifluoromethyl)phenyl]-2,3,4,8-tetrahydroimidazo[1,5-a]pyrimidin-6-amine] |  |  | inhibition at 25 µM (human BACE1): 48% |
| COc1cccc(C2(c3ccccc3)N=C(N)N3CCCN=C32)c1 (stereo not shown) [Example 7, 8-(3-Methoxyphenyl)-8-phenyl-2,3,4,8-tetrahydroimidazo[1,5-a]pyrimidin-6-amine] |  |  | inhibition at 25 µM (human BACE1): 49% |
| CCCOc1cccc(C2(c3ccc(OC)c(C)c3)N=C(N)N3CCN=C32)c1 (stereo not shown) [Example 8, 7-(4-Methoxy-3-methylphenyl)-7-(3-propoxyphenyl)-2,7-dihydro-3H-imidazo[1.5-a]imidazol-5-amine] |  | 0.4 µM |  |
| CCCOc1cccc(C2(c3ccc(OC)c(C)c3)N=C(N)N3CCCN=C32)c1 (stereo not shown) [Example 9, 8-(4-Methoxy-3-methylphenyl)-8-(3-propoxyphenyl)-2,3,4,8-tetrahydroimidazo[1,5-a]pyrimidin-6-amine] |  | 0.3 µM |  |
| CCCOc1cccc(C2(c3ccc(OC)c(C)c3)N=C(N)N3CC(C)(C)CN=C32)c1 (stereo not shown) [Example 10, 8-(4-Methoxy-3-methylphenyl)-3,3-dimethyl-8-(3-propoxyphenyl)-2,3,4,8-tetrahydroimidazo[1,5-a]pyrimidin-6-amine] |  | 1.1 µM |  |
| NC1=NC(c2ccc(OC(F)(F)F)cc2)(c2cccc(CCC3CC3)c2)C2=NCCCN12 (stereo not shown) [Example 12, 8-[3-(2-Cyclopropyl-ethyl)-phenyl]-8-(4-trifluoromethoxy-phenyl)-2,3,4,8-tetrahydro-imidazo[1,5-a]pyrimidin-6-ylamine] | 65 to 77 °C | 0.21 µM |  |
| C=CCc1cccc(C2(c3ccc(OC(F)(F)F)cc3)N=C(N)N3CCCN=C32)c1 (stereo not shown) [Example 13, 8-(3-Allylphenyl)-8-(4-trifluoromethoxyphenyl)-2,3,4,8-tetrahydro-imidazo[1,5-a]pyrimidin-6-ylamine] | 89 to 111 °C |  | inhibition at 5 µM (human BACE1; read-out: BACE1 % inhibition at 5 μM, at 5 μM inhibitor): 53% |
| CCCc1cccc(C2(c3ccc(OC(F)(F)F)cc3)N=C(N)N3CCCN=C32)c1 (stereo not shown) [Example 14, 8-(3-Propyl-phenyl)-8-(4-trifluoromethoxy-phenyl)-2,3,4,8-tetrahydro-imidazo[1,5-a]pyrimidin-6-ylamine] | 75 to 79 °C | 1.43 µM |  |
| CCNC(=O)c1cccc(C2(c3ccc(OC(F)(F)F)cc3)N=C(N)N3CCCN=C32)c1 (stereo not shown) [Example 15, 3-[6-Amino-8-(4-trifluoromethoxy-phenyl)-2,3,4,8-tetrahydroimidazo[1,5-a]pyrimidin-8-yl]-N-ethyl-benzamide] | 129 to 136 °C |  | inhibition at 0.5 µM (human BACE1; read-out: BACE1 % inhibition at 0.5 μM, at 0.5 μM inhibitor): 40% |
| CCC(=O)Nc1cccc(C2(c3ccc(OC(F)(F)F)cc3)N=C(N)N3CCCN=C32)c1 (stereo not shown) [Example 16, N-{3-[6-Amino-8-(4-trifluoromethoxy-phenyl)-2,3,4,8-tetrahydroimidazo[1,5-a]pyrimidin-8-yl]-phenyl}-propionamide hydrochloride] |  |  | inhibition at […] (human BACE1; read-out: BACE1 % inhibition at […], at 2.5 μM inhibitor): 43% |
